Data on 14 molecules can be found in patent US20260258021A1, “MONOFLUORINATED COUMARIN FLUOROPHORES AND USES THEREOF” (Ohio State Innovation Foundation, priority 2023, published 2026).

“And” between values parts separate entries of the source, which are not always exact repeats. Equal values may be shown once. Read-outs that look alike come from different tables or passages of the source. Marks after values point to notes of the source that are not given here.

One data set has as its system HEK293T cells. Kind of data set: Cytotoxicity by propidium iodide staining in the FPCBA with DDR1-expressing cells. The conditions noted are these: living HEK293T cells, FPCBA competition experiments, [6FC-Dasatinib]=1 μM. Type of data set: cell-based. As for the experimental part: FIGS. 6A and 6B depict a fluorescent probe cellular binding assay (FPCBA) with 6FC-Dasatanib and native DDR1 kinase (IRES-mVenus). (FIG. 6A) Binding of 6FC-Dasatanib to native DDR1 expressed in living HEK293T cells by flow cytometry (2 h, 37° C.). (FIG. 6B) Competition experiments against native DDR1 in living HEK293T cells with the kinase inhibitors ponatinib and dasatinib by flow cytometry. [6FC-Dasatinib]=1 μM.
The previously reported FPCBA approach (Yin, Y. et al. J Am. Chem. Soc. 2024, 146 (1), 187-200) was used to analyze binding of small molecules to native full length DDR1 kinase overexpressed in living HEK293T cells (IRES-mVenus vector) by flow cytometry.

For data set [1] the following is noted: literature; cited from earlier work.
In data set [2] the test system is microtubules of living HeLa cells. The conditions noted are these: for Kd: read-out: cellular Kd.
A short description of a further data set: physchem. The conditions noted are these: aqueous buffers of varied pH.
Data set [3] can be described thus: Absorbance and fluorescence spectroscopy of coumarin amides (λmax, molar extinction coefficient, quantum yield). Type of data set: physicochemical. To be noted: for ε405 nm (molar extinction coefficient): 405 nm, 10% DMSO; for ε405 nm (molar extinction coefficient) / Φ (quantum yield): PBS; for Φ (quantum yield) / Abs. λmax / Em. λmax: 1% DMSO; for Φ (quantum yield): relative to 30; for Abs. λmax / Em. λmax: aqueous PBS. As for the experimental part: FIG. […] FIG. 4B depicts the determination of molar extinction coefficients (ε405 nm) of 26-28 as previously described in J. Am. Chem. Soc. […] The integrated fluorescence intensity (Ex. 405 nm, Em. 420-700 nm) was plotted against the maximum absorbance of the sample at the concentration studied (100 nM-6.25 nM) as extrapolated from absorbance measurements at higher concentrations. The slope determined by linear least squares (zero intercept) is proportional to the quantum yield. Spectra were acquired with a BMG LabTech ClarioStar Plus microtiterplate reader.

The conditions of data set [4]: cited from earlier work; for ε405 nm (molar extinction coefficient): 405 nm, PBS, 10% DMSO, previously described; for Φ (quantum yield): pH 7.4, 1% DMSO, based on a previously reported PB-biotin amide.
The target in a further data set is purified microtubules. To be noted: literature; cited from earlier work.
Another data set relates to HeLa cells. The conditions noted are these: 3 h, 37° C., absence of verapamil.
Where [5] appears, read: living HeLa cells, 3 h, 37° C., absence of verapamil.
[6] abbreviates: living HeLa cells, 3 h, 37° C., presence of verapamil (100 μM).

Consider `Cc1nc(Nc2ncc(C(=O)Nc3c(C)cccc3Cl)s2)cc(N2CCN(CCOCCNC(=O)c3cc4cc(F)c(O)cc4oc3=O)CC2)n1` [6FC-Dasatinib, N-(2-chloro-6-methylphenyl)-2-((6-(4-(2-(2-(6-fluoro-7-hydroxy-2-oxo-2H-chromene-3-carboxamido)ethoxy)ethyl)piperazin-1-yl)-2-methylpyrimidin-4-yl)amino)thiazole-5-carboxamide], for which the “Cytotoxicity (propidium iodide staining)” value in the data set on HEK293T cells is “No cytotoxicity was observed”.
For the molecule `O=C(O)c1cc2ccc(O)cc2oc1=O` [Compound 1, 7-hydroxycoumarin-3-carboxylic acid], in data set [1], the “pKa of the phenol” value is reported as 7.0-7.5.
For the molecule `O=C(O)c1cc2cc(F)c(O)c(F)c2oc1=O` [Compound 2, Pacific Blue], the “pKa of the phenol” value in data set [1] is on record as 4.7.
Regarding `CC(=O)O[C@H]1C(=O)[C@]2(C)[C@@H](OC(=O)CCCNC(=O)c3cc4c(F)cc(O)cc4oc3=O)C[C@H]3OC[C@@]3(OC(C)=O)[C@H]2[C@H](OC(=O)c2ccccc2)[C@]2(O)C[C@H](OC(=O)[C@H](O)[C@@H](NC(=O)c3ccccc3)c3ccccc3)C(C)=C1C2(C)C` [Compound 8, (2aR,4S,4aS,6R,9S,11S,12S,12bS)-9-(((2R,3S)-3-benzamido-2-hydroxy-3-phenylpropanoyl)oxy)-12-(benzoyloxy)-4-((4-(5-fluoro-7-hydroxy-2-oxo-2H-chromene-3-carboxamido)butanoyl)oxy)-11-hydroxy-4a,8,13,13-tetramethyl-5-oxo-3,4,4a,5,6,9,10,11,12,12a-decahydro-1H-7,11-methanocyclodeca[3,4]benzo[1,2-b]oxete-6,12b(2aH)-diyl diacetate], the “S/B (maximal signal-to-background, fold change)” value in data set [2] (0.4 μM probe, absence of verapamil) is reported as 7 fold. Further, the “cellular Kd” value in data set [2] (setting [5]) is “low affinity prevented accurate determination”. Also, the Kd in data set [2] (setting [6]) amounted to 150 nM.
For the molecule `CC(=O)O[C@H]1C(=O)[C@]2(C)[C@@H](OC(=O)CCCNC(=O)c3cc4cc(F)c(O)cc4oc3=O)C[C@H]3OC[C@@]3(OC(C)=O)[C@H]2[C@H](OC(=O)c2ccccc2)[C@]2(O)C[C@H](OC(=O)[C@H](O)[C@@H](NC(=O)c3ccccc3)c3ccccc3)C(C)=C1C2(C)C` [Compound 9, (2aR,4S,4aS,6R,9S,11S,12S,12bS)-9-(((2R,3S)-3-benzamido-2-hydroxy-3-phenylpropanoyl)oxy)-12-(benzoyloxy)-4-((4-(6-fluoro-7-hydroxy-2-oxo-2H-chromene-3-carboxamido)butanoyl)oxy)-11-hydroxy-4a,8,13,13-tetramethyl-5-oxo-3,4,4a,5,6,9,10,11,12,12a-decahydro-1H-7,11-methanocyclodeca[3,4]benzo[1,2-b]oxete-6,12b(2aH)-diyl diacetate], the Kd in data set [2] (setting [5]) came out at 2400 nM; in data set [2] (setting [6]), 150 nM.
As to `CC(=O)O[C@H]1C(=O)[C@]2(C)[C@@H](OC(=O)CCCNC(=O)c3cc4ccc(O)c(F)c4oc3=O)C[C@H]3OC[C@@]3(OC(C)=O)[C@H]2[C@H](OC(=O)c2ccccc2)[C@]2(O)C[C@H](OC(=O)[C@H](O)[C@@H](NC(=O)c3ccccc3)c3ccccc3)C(C)=C1C2(C)C` [Compound 10, (2aR,4S,4aS,6R,9S,11S,12S,12bS)-9-(((2R,3S)-3-Benzamido-2-hydroxy-3-phenylpropanoyl)oxy)-12-(benzoyloxy)-4-((4-(8-fluoro-7-hydroxy-2-oxo-2H-chromene-3-carboxamido)butanoyl)oxy)-11-hydroxy-4a,8,13,13-tetramethyl-5-oxo-3,4,4a,5,6,9,10,11,12,12a-decahydro-1H-7,11-methanocyclodeca[3,4]benzo[1,2-b]oxete-6,12b(2aH)-diyl diacetate], the Kd in data set [2] (setting [5]) amounted to 3500 nM; in data set [2] (setting [6]) it was 230 nM.
Take `CCCCCCNC(=O)c1cc2c(F)cc(O)cc2oc1=O` [Compound 26, 5-Fluoro-N-hexyl-7-hydroxy-2-oxo-2H-chromene-3-carboxamide]: the pKa in “physchem” stood at 6.9. For the same molecule, in data set [3] (pH 7.4), the “ε405 nm (molar extinction coefficient)” value is on record as 25,000 (7.4) M^−1 cm^−1, the “Φ (quantum yield)” value is 0.73, the “Abs. λmax” value came to 400 nm and the “Em. λmax” value is given as 449 nm.
In “physchem”, `CCCCCCNC(=O)c1cc2cc(F)c(O)cc2oc1=O` [Compound 27, 6-Fluoro-N-hexyl-7-hydroxy-2-oxo-2H-chromene-3-carboxamide] displayed a pKa of 6.5. For the same molecule, in data set [3] (pH 7.4), the “ε405 nm (molar extinction coefficient)” value was 37,000 M^−1 cm^−1, the “Φ (quantum yield)” value is 0.84, the “Abs. λmax” value is reported as 401 nm and the “Em. λmax” value was 451 nm. In addition, the “Brightness (product of molar extinction coefficient and quantum yield) relative to PB-hexanamide (30)” value in data set [3] (pH 7.4) is listed as 145%. Further, the “ε405 nm (molar extinction coefficient)” value in data set [3] (pH 7.4, listed as 6FC-hexanamide (27)) is 37,000 M^−1 cm^−1 and 37,000 (7.4) M^−1 cm^−1.
Consider `CCCCCCNC(=O)c1cc2ccc(O)c(F)c2oc1=O` [Compound 28, 8-Fluoro-N-hexyl-7-hydroxy-2-oxo-2H-chromene-3-carboxamide], for which, in “physchem”, the pKa came out at 6. Also, in data set [3] (pH 7.4), the “ε405 nm (molar extinction coefficient)” value was 28,000 (7.4) M^−1 cm^−1, the “Φ (quantum yield)” value amounted to 0.69, the “Abs. λmax” value was 402 nm and the “Em. λmax” value stood at 457 nm.
As for `CCCCCCNC(=O)c1cc2ccc(O)cc2oc1=O` [Compound 29, N-Hexyl-7-hydroxy-2-oxo-2H-chromene-3-carboxamide, reference compound], the “ε405 nm (molar extinction coefficient)” value in data set [4] (pH 10) is given as 22,000 (10) M^−1 cm^−1. The same molecule came in with a pKa in the data set “physchem” of 7.3. In data set [3] (pH 7.4), the “Φ (quantum yield)” value came to 0.35, the “Abs. λmax” value was determined as 401 nm and the “Em. λmax” value is given as 447 nm. For the same molecule, the “Φ (quantum yield)” value in data set [3] (pH 10) came out at 0.62.
On to `CCCCCCNC(=O)c1cc2cc(F)c(O)c(F)c2oc1=O` [Compound 30, 6,8-Difluoro-N-hexyl-7-hydroxy-2-oxo-2H-chromene-3-carboxamide, reference compound], for which, in data set [4] (pH 7.4), the “ε405 nm (molar extinction coefficient)” value is reported as 29,000 (7.4) M^−1 cm^−1. In addition, the “Φ (quantum yield)” value in data set [4] is 0.74. The “Φ (quantum yield)” value in data set [4] (listed as PB-hexanamide (30)) was 0.74^‡. This molecule yielded a pKa in the data set “physchem” of 4.1. In addition, in data set [3] (pH 7.4), the “Abs. λmax” value stood at 403 nm and the “Em. λmax” value is 447 nm.
Take `COC(=O)c1cc2cc(F)c(O)c(F)c2oc1=O` [PB methyl ester]: the “pKa of the phenol” value in data set [1] is given as 3.7.
Regarding `CC(=O)O[C@H]1C(=O)[C@@]2(C)[C@H]([C@H](OC(=O)c3ccccc3)[C@]3(O)C[C@H](OC(=O)[C@H](O)[C@@H](NC(=O)c4ccccc4)c4ccccc4)C(C)=C1C3(C)C)[C@]1(OC(C)=O)CO[C@@H]1C[C@@H]2O` [paclitaxel], the Ki at purified microtubules is 19 nM and 27 nM and 31 nM.
For “(2aR,4S,4aS,6R,9S,11S,12S,12bS)-9-(((2R,3S)-3-benzamido-2-hydroxy-3-phenylpropanoyl)oxy)-12-(benzoyloxy)-11-hydroxy-4-((4-(7-hydroxy-2-oxo-2H-chromene-3-carboxamido)butanoyl)oxy)-4a,8,13,13-tetramethyl-5-oxo-3,4,4a,5,6,9,10,11,12,12a-decahydro-1H-7,11-methanocyclodeca[3,4]benzo[1,2-b]oxete-6,12b(2aH)-diyldiacetate [Compound 6]”, the Cellular uptake entry in the data set with HeLa cells was “high cellular uptake”.
